In ChEMBL document CHEMBL5723582, “Data for DCP probe T-10430” (2024):

Biological target: Retinoic acid-induced protein 3 (Homo sapiens) (UniProt Q8NFJ5)
Assay: RLU of GPRC5A at 1.0 µM in the […] PRESTO-Tango GPCRome screen
Details: Compound concentration 1.0 uM

Sequence of Retinoic acid-induced protein 3 (Homo sapiens) (Q8NFJ5 whole entry): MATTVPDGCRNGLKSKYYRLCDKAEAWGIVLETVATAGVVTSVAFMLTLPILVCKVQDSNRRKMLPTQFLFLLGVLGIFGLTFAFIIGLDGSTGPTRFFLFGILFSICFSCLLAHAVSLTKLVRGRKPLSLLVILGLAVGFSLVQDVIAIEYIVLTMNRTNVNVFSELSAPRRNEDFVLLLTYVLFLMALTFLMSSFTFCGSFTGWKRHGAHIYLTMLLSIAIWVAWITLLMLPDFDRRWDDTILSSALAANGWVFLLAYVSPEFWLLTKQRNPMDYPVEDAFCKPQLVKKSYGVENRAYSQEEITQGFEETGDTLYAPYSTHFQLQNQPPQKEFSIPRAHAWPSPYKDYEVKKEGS

SMILES: CCCCC(=O)N1CC2(C1)CN(c1ccccc1-c1nnn[nH]1)C2
- RLU: 3570
